The values below come from patent US20220089541A1, “Compounds for the Treatment of Kinase-Dependent Disorders” (Exelixis, Inc., priority 2019, published 2022).

The experiment deals with T1, AXL (Homo sapiens, UniProt P30530).
T1 construct: host or cells: A-172 glioblastoma cells
T1 sequence (P30530 26-894): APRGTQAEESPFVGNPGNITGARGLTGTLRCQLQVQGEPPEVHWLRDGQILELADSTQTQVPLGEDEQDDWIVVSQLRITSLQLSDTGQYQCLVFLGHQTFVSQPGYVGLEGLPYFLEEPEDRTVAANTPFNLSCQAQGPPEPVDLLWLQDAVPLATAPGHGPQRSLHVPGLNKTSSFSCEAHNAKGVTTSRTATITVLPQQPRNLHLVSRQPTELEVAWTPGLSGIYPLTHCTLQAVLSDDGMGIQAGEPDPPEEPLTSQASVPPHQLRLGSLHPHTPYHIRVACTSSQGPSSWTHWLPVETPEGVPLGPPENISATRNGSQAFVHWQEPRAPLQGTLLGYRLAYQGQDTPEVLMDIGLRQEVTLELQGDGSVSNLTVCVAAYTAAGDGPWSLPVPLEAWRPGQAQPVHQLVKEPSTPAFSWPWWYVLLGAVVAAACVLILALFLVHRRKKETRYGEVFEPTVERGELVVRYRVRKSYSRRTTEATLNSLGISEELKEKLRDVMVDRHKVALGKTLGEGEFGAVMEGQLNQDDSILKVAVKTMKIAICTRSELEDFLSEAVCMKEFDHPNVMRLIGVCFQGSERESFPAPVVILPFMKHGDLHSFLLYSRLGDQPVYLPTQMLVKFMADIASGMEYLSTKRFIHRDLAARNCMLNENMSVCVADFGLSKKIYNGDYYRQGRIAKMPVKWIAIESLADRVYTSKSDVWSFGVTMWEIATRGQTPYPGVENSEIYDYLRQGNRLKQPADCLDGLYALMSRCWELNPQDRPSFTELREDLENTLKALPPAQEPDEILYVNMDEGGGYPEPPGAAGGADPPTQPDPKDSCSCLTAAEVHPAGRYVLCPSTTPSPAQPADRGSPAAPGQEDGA
Kind of experiment: AXL autophosphorylation ELISA in A-172 cells. It counts as cell-based. Conditions: A-172 glioblastoma cells, Gas6-stimulated, phospho-AXL ELISA, 1 h compound incubation. On the procedure:
Example A: AXL Autophosphorylation ELISA in A-172 Cells
A-172 glioblastoma cells (ATCC #CRL-1620) were seeded at 2.5×10^5 cells/well onto 24-well plates (Greiner #662165), in DMEM (Thermo Fisher #11995-040) containing 10% FBS (Thermo Fisher #26140-079), 1% MEM NEAA (Thermo Fisher #11140-050), 1% GlutaMax (Thermo Fisher #35050-061), and 1% Penicillin Streptomycin (Thermo Fisher #15140-122). A-172 cells were incubated at 37° C., 5% CO2 for 24 h and then starved for 24 h in serum-free medium. Test compounds were serially diluted to produce an 8-point dose curve in fresh serum-free medium to a final concentration of 0.3% DMSO (vehicle) and added to the cells and incubated for 1 h. Cells were then stimulated with 1 μg/mL recombinant human Gas6 (R&D Systems #885-GSB-500) for 15 min, washed with cold PBS, and immediately lysed with 150 μL of cold IX lysis buffer [20 mM Tris, 137 mM sodium chloride, 2 mM EDTA, 10% glycerol, 1% NP-40 alternative, 1 mM activated sodium orthovanadate, 1 mM PefaBloc SC (Sigma-Aldrich #11429868001), protease/phosphatase inhibitor tablet (Thermo Fisher #A32959)]. Lysates were collected and 100 μL/well added into the human phospho-AXL DuoSet IC ELISA (R&D Systems #DYC2228-2). Assay was performed according to manufacturer's instructions and sample phospho-AXL concentrations were extrapolated using human phospho-AXL control (R&D Systems #841645) as a standard. Positive control wells (100% activity) contained Gas6-stimulated, DMSO-treated cell lysates. Negative control wells (0% activity) contained Gas6-stimulated, reference inhibitor-treated cell lysates. IC50 values were calculated by nonlinear regression analysis using a 4-parameter logistic curve fit in ActivityBase XE (IDBS).

`COc1cc2nccc(Oc3ncc(NC(=O)C4(C(=O)N(C)c5ccc(F)cc5)CC4)cc3F)c2cc1C(N)=O` [Compound 35, 1-N-[6-(6-Carbamoyl-7-methoxyquinolin-4-yl)oxy-5-fluoropyridin-3-yl]-1-N′-(4-fluorophenyl)-1-N′-methylcyclopropane-1,1-dicarboxamide]: the IC50 is above 300 nM.

Compound `COc1cc2nccc(Oc3ccc(NC(=O)C4(C(=O)N(C)c5ccc(F)cc5)CC4)cc3F)c2cc1OC` [Compound 10, N-(4-((6,7-Dimethoxyquinolin-4-yl)oxy)-3-fluorophenyl)-N-(4-fluorophenyl)-N-methylcyclopropane-1,1-dicarboxamide] showed an IC50 above 300 nM. Regarding `COc1cc2nccc(Oc3ccc(NC(=O)C4(C(=O)N(C)c5ccc(F)cc5)CC4)cc3)c2cc1OC` [Compound 9, 1-N-[4-(6,7-Dimethoxyquinolin-4-yl)oxyphenyl]-1-N′-(4-fluorophenyl)-1-N′-methylcyclopropane-1,1-dicarboxamide], the IC50 was above 300 nM. For the compound `COc1cc2nccc(Oc3ccc(N(C)C(=O)C4(C(=O)Nc5ccc(F)cc5)CC4)cc3F)c2cc1OC` [Compound 51, 1-N′-[4-(6,7-Dimethoxyquinolin-4-yl)oxy-3-fluorophenyl]-1-N-(4-fluorophenyl)-1-N′-methylcyclopropane-1,1-dicarboxamide], the IC50 is above 300 nM. With `CNC(=O)c1cc2c(Oc3ncc(NC(=O)C4(C(=O)N(C)c5ccc(F)cc5)CC4)cc3F)ccnc2cc1OC` [Compound 34, 1-N-[5-Fluoro-6-[7-methoxy-6-(methylcarbamoyl)quinolin-4-yl]oxypyridin-3-yl]-1-N′-(4-fluorophenyl)-1-N′-methylcyclopropane-1,1-dicarboxamide], the IC50 was above 300 nM.
